Measured values: PubChem BioAssay AID256 (DTP/NCI, 2004)
Several values for one entry are separate records, joined by “and”; a condition that tells them apart may be missing. Equal values may be shown once. Inconclusive results and toxic doses are left out.

System: CD2F1 mice, L1210 leukemia ip, survival T/C
Test: NCI In Vivo Anticancer Drug Screen. Data for tumor model L1210 Leukemia (intraperitoneal) in CD2F1 (CDF1) mice
Conditions: higher = longer survival
Summary of the method: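 Mice carrying a transplanted tumor received test compound or vehicle alone. The value is the measurement in the treated group divided by that in the vehicle-treated control group.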

[1] = endpoint: mean survival time, dose: 50.0 mg/kg/injection, schedule: Q04DX003 (ip), vehicle: saline with Tween-80
[2] = endpoint: mean survival time, dose: 100.0 mg/kg/injection, schedule: Q04DX003 (ip), vehicle: saline with Tween-80

O=P(NC12CC3CC(CC(C3)C1)C2)(N1CC1)N1CC1
T/C (endpoint: mean survival time, dose: 4.8 mg/kg/injection, schedule: Q04DX003 (ip), vehicle: Klucel (hydroxypropylcellulose) (HPC)): 120 % of control
T/C (endpoint: mean survival time, dose: 9.6 mg/kg/injection, schedule: Q04DX003 (ip), vehicle: Klucel (hydroxypropylcellulose) (HPC)): 120 % of control
T/C (endpoint: mean survival time, dose: 30.0 mg/kg/injection, schedule: Q04DX003 (ip), vehicle: Klucel (hydroxypropylcellulose) (HPC)): 162 % of control

Nc1nc(=O)n(C2OC(CO)C(O)C2O)c2nc[nH]c12 (centres undefined)
T/C (endpoint: mean survival time, dose: 6.25 mg/kg/injection, schedule: Q01DX005 (ip), vehicle: water): 98 % of control
T/C (endpoint: mean survival time, dose: 12.5 mg/kg/injection, schedule: Q01DX005 (ip), vehicle: water): 90 % of control
T/C (endpoint: mean survival time, dose: 25.0 mg/kg/injection, schedule: Q01DX005 (ip), vehicle: water): 88 % of control
T/C (endpoint: mean survival time, dose: 50.0 mg/kg/injection, schedule: Q01DX005 (ip), vehicle: water): 92 % of control and 93 % of control
T/C (endpoint: mean survival time, dose: 100.0 mg/kg/injection, schedule: Q01DX005 (ip), vehicle: water): 87 % of control and 90 % of control

CC(=O)Oc1cc2c(OC(C)=O)c(-c3c(C)cc4c(C(C)C)c(OC(C)=O)c(OC(C)=O)cc4c3OC(C)=O)c(C)cc2c(C(C)C)c1OC(C)=O
T/C (endpoint: mean survival time, dose: 25.0 mg/kg/injection, schedule: Q04DX002 (ip), vehicle: saline with Tween-80): 100 % of control
T/C (endpoint: mean survival time, dose: 50.0 mg/kg/injection, schedule: Q04DX002 (ip), vehicle: saline with Tween-80): 96 % of control
T/C (endpoint: mean survival time, dose: 100.0 mg/kg/injection, schedule: Q04DX002 (ip), vehicle: saline with Tween-80): 89 % of control

COc1ccc(CCNC(C)Cc2ccc(OC)c(OC)c2)cc1OC (centres undefined)
T/C (endpoint: mean survival time, dose: 12.5 mg/kg/injection, schedule: Q01DX009 (ip), vehicle: water): 104 % of control
T/C (endpoint: mean survival time, dose: 25.0 mg/kg/injection, schedule: Q01DX009 (ip), vehicle: water): 101 % of control
T/C (endpoint: mean survival time, dose: 50.0 mg/kg/injection, schedule: Q01DX009 (ip), vehicle: water): 103 % of control

NC(=O)COc1ccc(Cl)cc1Cl
T/C (endpoint: mean survival time, dose: 100.0 mg/kg/injection, schedule: Q01DX001 (ip), vehicle: saline with Tween-80): 98 % of control
T/C (endpoint: mean survival time, dose: 100.0 mg/kg/injection, schedule: Q01DX009 (ip), vehicle: saline with Tween-80): 94 % of control
T/C (endpoint: mean survival time, dose: 200.0 mg/kg/injection, schedule: Q01DX001 (ip), vehicle: saline with Tween-80): 94 % of control
T/C (endpoint: mean survival time, dose: 200.0 mg/kg/injection, schedule: Q01DX009 (ip), vehicle: saline with Tween-80): 96 % of control
T/C (endpoint: mean survival time, dose: 400.0 mg/kg/injection, schedule: Q01DX001 (ip), vehicle: saline with Tween-80): 94 % of control

O=C(C=P(CC[PH+](Cc1ccccc1)Cc1ccccc1)(Cc1ccccc1)Cc1ccccc1)c1ccccc1.[Cl][Pd][Cl]
T/C (endpoint: mean survival time, dose: 3.13 mg/kg/injection, schedule: Q04DX003 (ip), vehicle: distilled water + Tween-80): 98 % of control
T/C (endpoint: mean survival time, dose: 6.25 mg/kg/injection, schedule: Q04DX003 (ip), vehicle: distilled water + Tween-80): 100 % of control
T/C (endpoint: mean survival time, dose: 12.5 mg/kg/injection, schedule: Q04DX003 (ip), vehicle: distilled water + Tween-80): 104 % of control
T/C (endpoint: mean survival time, dose: 25.0 mg/kg/injection, schedule: Q04DX003 (ip), vehicle: distilled water + Tween-80): 102 % of control
T/C (endpoint: mean survival time, dose: 50.0 mg/kg/injection, schedule: Q04DX003 (ip), vehicle: distilled water + Tween-80): 96 % of control
T/C (endpoint: mean survival time, dose: 100.0 mg/kg/injection, schedule: Q04DX003 (ip), vehicle: distilled water + Tween-80): 96 % of control
T/C (endpoint: mean survival time, dose: 200.0 mg/kg/injection, schedule: Q04DX003 (ip), vehicle: distilled water + Tween-80): 96 % of control

COc1cc(C)c(O)c(C[P+](c2ccccc2)(c2ccccc2)c2ccccc2)c1
T/C (endpoint: mean survival time, dose: 25.0 mg/kg/injection, schedule: Q01DX009 (ip), vehicle: saline with Tween-80): 98 % of control
T/C (endpoint: mean survival time, dose: 50.0 mg/kg/injection, schedule: Q01DX009 (ip), vehicle: saline with Tween-80): 94 % of control
T/C [1]: 106 % of control
T/C [2]: 96 % of control

CC1(c2ccc(O)cc2)OCCCC1([NH-])C[NH-].[Cl][Pt+2][Cl] (centres undefined)
T/C (endpoint: median survival time, dose: 10.0 mg/kg/injection, schedule: Q04DX003 (ip), vehicle: saline): 110 % of control
T/C (endpoint: median survival time, dose: 20.0 mg/kg/injection, schedule: Q04DX003 (ip), vehicle: saline): 106 % of control
T/C (endpoint: median survival time, dose: 40.0 mg/kg/injection, schedule: Q04DX003 (ip), vehicle: saline): 100 % of control
T/C (endpoint: median survival time, dose: 80.0 mg/kg/injection, schedule: Q04DX003 (ip), vehicle: saline with Tween-80): 107 % of control
T/C (endpoint: median survival time, dose: 80.0 mg/kg/injection, schedule: Q04DX003 (ip), vehicle: saline): 103 % of control
T/C (endpoint: median survival time, dose: 160.0 mg/kg/injection, schedule: Q04DX003 (ip), vehicle: saline with Tween-80): 107 % of control
T/C (endpoint: median survival time, dose: 320.0 mg/kg/injection, schedule: Q04DX003 (ip), vehicle: saline with Tween-80): 107 % of control

COc1ccc(NC(=S)NN)cc1
T/C (endpoint: mean survival time, dose: 25.0 mg/kg/injection, schedule: Q04DX003 (ip), vehicle: saline with Tween-80): 110 % of control
T/C [1]: 91 % of control
T/C [2]: 87 % of control and 96 % of control
T/C (endpoint: mean survival time, dose: 400.0 mg/kg/injection, schedule: Q04DX003 (ip), vehicle: saline with Tween-80): 107 % of control

CC(C)C(C)CCC(C)C1CCC2=C3CCC4CC(O)CCC4(C)C3CCC21C (centres undefined)
T/C (endpoint: mean survival time, dose: 75.0 mg/kg/injection, schedule: Q01DX001 (ip), vehicle: saline with Tween-80): 89 % of control
T/C (endpoint: mean survival time, dose: 150.0 mg/kg/injection, schedule: Q01DX001 (ip), vehicle: saline with Tween-80): 92 % of control
T/C (endpoint: mean survival time, dose: 300.0 mg/kg/injection, schedule: Q01DX001 (ip), vehicle: saline with Tween-80): 100 % of control
